Data published in patent US20250223297A1, “NOVEL RAPAMYCIN DERIVATIVES” (Novartis AG, priority 2017, published 2025).

How the values were obtained:
[1] = molecular target: FKBP52 (Homo sapiens (Human), UniProt Q02790); experiment: SPR assay, binding affinity to FKBP52; conditions: single-cycle kinetics
Experimental: (§1) SPR Assay to Determine Binding Affinity to FK506-Binding Proteins (FKBP). N-terminal avi-his6 tagged FKBP fusions to FKBP12, FKBP51 and FKBP52 were expressed in E. coli and purified using standard chromatography. Each protein was subsequently immobilized on a streptavidin chip in a Biacore 8K SPR instrument (GE Healthcare). Using single-cycle kinetics, compound titrations were flowed at 45 uL/min over each surface using 2-minute association and 30-minute dissociation phases in a buffer containing 50 mM Tris pH 7.5/150 mM NaCl/0.01% Tween 20/1 mM DTT/2% DMSO. The data was fit using low molecular weight (LMW) single-cycle kinetics. The equilibrium dissociation constants (KD) are reported. […]

[2] = molecular target: FKBP12 (Homo sapiens (Human), UniProt P62942); experiment: SPR assay, binding affinity to FKBP12; conditions: single-cycle kinetics
Experimental: as §1

[3] = test system: S6K1 (Thr389) phosphorylation (mTORC1 activity) in WT 293T cells; experiment: S6K1 (Thr389) phosphorylation ELISA in wild-type 293T cells; type: cell-based; conditions: 2 h, relative to DMSO
Experimental: WT, FKBP12 knock-down and FKBP12 knock-out 293T cells were plated at a density of 30,000 cells per well in poly-D-Lysine coated 96-well plates (Corning, #354461) in Dulbecco's modified Eagle's medium (ThermoFisher, #11995-065) supplemented with 10% fetal bovine serum (ThermoFisher, #16140-071). Cells were incubated at 37° C., 5% CO2 for 48 hours until they reached ˜80% confluence. […] Media supplemented with blank Dimethyl sulfoxide (DMSO) was used as a control for both compounds. Phosphorylated amounts of S6K1 (Thr389) were detected by a sandwich ELISA kit (Cell signaling, #7063C) following the manufacture's protocol.
S6K1 is a downstream target of mTORC1 and phosphorylation of its rapalog-sensitive Thr389 site is used as a functional readout of mTORC1 activity. Lee, C. H., Inoki, K. and Guan, K. L. (2007). mTOR pathway as a target in […]. Annu. Rev. Pharmacol. Toxicol. 47. 443-467. […] In FKBP12 knock-out cells. […] Such specificity of Example 2 to FKBP12 may facilitate targeting cells and tissues with relatively high levels of FKBP12 expression, while avoiding (or minimizing) side effects in the tissues where FKBP12 is weakly expressed.

[4] = test system: S6K1 (Thr389) phosphorylation (mTORC1 activity) in FKBP12 knock-down 293T cells; experiment: S6K1 (Thr389) phosphorylation ELISA in FKBP12 knock-down 293T cells; type: cell-based; conditions: 2 h, relative to DMSO
[5] = test system: S6K1 (Thr389) phosphorylation (mTORC1 activity) in FKBP12 knock-out 293T cells; experiment: S6K1 (Thr389) phosphorylation ELISA in FKBP12 knock-out 293T cells; type: cell-based; conditions: 2 h, relative to DMSO
[6] = test system: mTORC1 signaling (pS6 Ser240/244) in MEF TSC1−/− cells; experiment: MEF TSC1-/- cell based assay for rapalog potency (pS6); set-up: species or system mouse; conditions: Mus musculus, 2 h, 2 h treatment, average from multiple assays
Description: Potency of mTOR inhibitors may also be determined using a MEF TSC1−/− cell-based assay. MEF TSC1−/− cells are Mouse Embryonic Fibroblasts deficient in the Tuberous sclerosis protein, TSC1, which negatively regulates mTORC1 signaling. Thus, the deficiency of TSC1 induces constitutive mTORC1 activation, resulting in phosphorylation (activation) of the downstream proteins in the mTORC1 signaling pathways. This cell-based assay is used to measure inhibition (de-phosphorylation) of the mTORC1 signaling components S6 and 4EBP1, by rapalogs or other mTOR inhibitors.
The assay is typically carried out as follows: MEF TSC1−/− cells are plated on Poly-D-lysine coated 384 well Griener clear bottom plates and incubated overnight at 37° C., 5% CO2. […] Cells are fixed with 4% paraformaldehyde for 30 min and washed 5 times with TBS-EDTA followed by immuno-staining with florescent tag labeled antibodies for pS6 and p4EBP1. Nuclei are visualized with Hoechst staining. Cells are imaged using respective florescence channels and the potency of mTOR inhibitors is defined by pS6 IC50 (nM).
Cell-based assay for rapalog potency determination. Rapalog potency was determined using MEF TSC1−/− cell based assay. MEF TSC1−/− cells are Mouse Embryonic Fibroblasts deficient in Tuberous sclerosis protein-TSC1, which negatively regulates mTORC1 signaling and thus display constitutive mTORC1 activation, resulting in phosphorylation (activation) of downstream molecules. This cell-based assay is used to measure inhibition (de-phosphorylation) of S6 and 4EBP1 by rapalogs or other mTOR inhibitors.
MEF TSC1−/− cells were plated on Poly-D-lysine coated 384 well Griener clear bottom plates and incubated overnight at 37° C., 5% CO2. […] Nuclei were visualized with Hoechst (ThermoFisher Scientific #H3570) staining. Cells were imaged (InCell 600) using respective fluorescence channels and the potency of mTOR inhibitors was defined by pS6 IC50 (nM).
In vitro potency of mTOR inhibitors was defined by pS6 IC50 (nM) in MEF TSC1−/− cells.
IC50 values are calculated as the average from multiple assays.

[7] = test system: mTORC1 pathway (S6 phosphorylation) in rat liver; experiment: Inhibition of mTORC1 pathway in rat liver (p-S6/t-S6 immunoblot); type: in vivo
Experimental: Protein extraction and immunoblotting. For protein extraction, snap frozen tissues were lysed in MSD Lysis Buffer (MSD, Rockville, Maryland), supplemented with complete EDTA free protease inhibitor and PhosSTOP phosphatase inhibitor tablets (Roche, Manheim, Germany), and centrifuged at 13,000g for 20 min at 4° C. The resultant supernatant was used for immunoblotting. Protein was quantified with BCA protein assay (Thermo Scientific, MA). Samples were resolved on 4-20% Criterion™ TGX™ Precast Midi Protein gels (Bio-Rad, CA) and transferred onto nitrocellulose membranes (Bio-Rad, CA) using a Trans Turbo Blot system (Bio-Rad, CA). Immunoblotting was performed with antibodies to p-S6 and t-S6 from Cell Signaling Technologies (all 1:1000 in TBS-T with 5% BSA). The ‘p’ and ‘t’ prefixes signify ‘phosphorylated’ and ‘total’ forms respectively. HRP-conjugated secondary antibodies against rabbit (#7074) were from Cell Signaling Technologies, MA. […] Resultant digital images were converted into a TIFF format and quantified using ImageJ software.
The ability of Example 2 to inhibit mTORC1 pathway in vivo was determined in rats aged 4 months (FIG. 5A-5D).

[8] = Comparative blood and brain concentrations in rats after single p.o. dose; type: in vivo; conditions: rat, single p.o. dose 3, 10, 30 mg/kg; 3 h and 24 h
Experimental: Concentrations were determined using HPLC/Mass spectrometry. […] Blood and brain tissues were collected at 3 hours (h) and 24 h following treatment to determine concentrations of the compounds.

Chain of FKBP12 (P62942 whole entry): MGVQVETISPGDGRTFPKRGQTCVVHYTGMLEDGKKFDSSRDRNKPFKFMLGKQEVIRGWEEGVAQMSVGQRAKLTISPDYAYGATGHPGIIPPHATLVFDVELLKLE
Chain of FKBP52 (Q02790 whole entry, the tested form may be a part): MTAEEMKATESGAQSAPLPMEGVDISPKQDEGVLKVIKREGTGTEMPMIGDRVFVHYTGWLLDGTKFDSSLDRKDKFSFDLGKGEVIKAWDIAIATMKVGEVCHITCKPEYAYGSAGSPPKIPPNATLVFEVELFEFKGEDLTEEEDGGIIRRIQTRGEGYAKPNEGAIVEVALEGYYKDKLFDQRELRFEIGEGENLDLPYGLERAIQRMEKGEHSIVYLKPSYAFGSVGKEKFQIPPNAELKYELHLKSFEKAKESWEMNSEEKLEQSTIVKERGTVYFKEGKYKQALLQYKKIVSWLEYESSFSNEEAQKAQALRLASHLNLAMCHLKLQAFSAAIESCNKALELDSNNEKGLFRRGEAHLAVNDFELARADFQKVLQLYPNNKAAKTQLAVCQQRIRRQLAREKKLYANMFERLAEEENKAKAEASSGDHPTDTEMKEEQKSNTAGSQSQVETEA

Row | SMILES | Kd [1] [nM] | Kd [2] [nM] | IC50 [6] [nM] | blood concentrations compared with RAD001 [8] | brain concentrations compared with RAD001 [8] | inhibition of S6K1 (Thr389) [3] [%] | maximum inhibition of S6K1 (Thr389) [4] [%] | inhibition of S6K1 (Thr389) phosphorylation [5] | S6 inactivation in rat liver, 24 h ([7]; 24 h following dosing with 10 (trend p=0.06) and 30 mg/kg) | de-phosphorylation (inactivation) of S6 in rat liver, 3 h ([7]; single p.o. dose 3, 10 and 30 mg/kg, three hours following dosing, vs vehicle)
1 | CO[C@@H]1C[C@H](C[C@@H](C)[C@@H]2CC[C@H](C)/C=C(\C)[C@@H](O)[C@@H](OC)C(=O)[C@H](C)C[C@H](C)/C=C/C=C/C=C(\C)[C@H](N3CCCS3(=O)=O)C[C@@H]3CC[C@@H](C)[C@@](O)(O3)C(=O)C(=O)N3CCCC[C@H]3C(=O)O2)CC[C@H]1OCCO [Example 16] | 4070 | 35 |  |  |  |  |  |  |  | 
2 | CO[C@H]1C[C@@H]2CC[C@@H](C)[C@@](O)(O2)C(=O)C(=O)N2CCCC[C@H]2C(=O)O[C@H]([C@H](C)C[C@@H]2CC[C@@H](OCCO)[C@H](OC)C2)CC(=O)[C@H](C)/C=C(\C)[C@@H](O)[C@@H](OC)C(=O)[C@H](C)C[C@H](C)/C=C/C=C/C=C/1C [RAD001, everolimus, reference compound] | 1760 | 500 |  |  |  | ~80 | ~70 | > 60% |  | 

The next lines start with results.

Row | Kd [1] [nM] | Kd [2] [nM] | IC50 [6] [nM] | blood concentrations compared with RAD001 [8] | brain concentrations compared with RAD001 [8] | SMILES | inhibition of S6K1 (Thr389) [3] [%] | maximum inhibition of S6K1 (Thr389) [4] [%] | inhibition of S6K1 (Thr389) phosphorylation [5] | S6 inactivation in rat liver, 24 h ([7]; 24 h following dosing with 10 (trend p=0.06) and 30 mg/kg) | de-phosphorylation (inactivation) of S6 in rat liver, 3 h ([7]; single p.o. dose 3, 10 and 30 mg/kg, three hours following dosing, vs vehicle)
3 | 176 | 1.6 |  |  |  | CO[C@@H]1C[C@H](C[C@@H](C)[C@@H]2CC[C@H](C)/C=C(\C)[C@@H](O)[C@@H](OC)C(=O)[C@H](C)C[C@H](C)/C=C/C=C/C=C(\C)C(N3CCS3(=O)=O)C[C@@H]3CC[C@@H](C)[C@@](O)(O3)C(=O)C(=O)N3CCCC[C@H]3C(=O)O2)CC[C@H]1OP(C)(C)=O (single isomer, unassigned) [Example 10, C16-(1,1-dioxido-1,2-thiazetidin-2-yl)-C32-deoxo-C40-dimethylphosphinyl-rapamycin] |  |  |  |  | 
4 | 542 | 16 | 7.77 |  |  | CO[C@@H]1C[C@H](C[C@@H](C)[C@@H]2CC[C@H](C)/C=C(\C)[C@@H](O)[C@@H](OC)C(=O)[C@H](C)C[C@H](C)/C=C/C=C/C=C(\C)C(N3CCCS3(=O)=O)C[C@@H]3CC[C@@H](C)[C@@](O)(O3)C(=O)C(=O)N3CCCC[C@H]3C(=O)O2)CC[C@H]1OP(C)(C)=O (single isomer, unassigned) [Example 14, C16-(1,1-dioxidoisothiazolidin-2-yl)-C32-deoxo-C40-dimethylphosphinyl-rapamycin] |  |  |  |  | 
5 | > 10000 | 16 | 0.274 | higher | higher | CO[C@@H]1C[C@H](C[C@@H](C)[C@@H]2CC[C@H](C)/C=C(\C)[C@@H](O)[C@@H](OC)C(=O)[C@H](C)C[C@H](C)/C=C/C=C/C=C(\C)[C@H](N3CCCS3(=O)=O)C[C@@H]3CC[C@@H](C)[C@@](O)(O3)C(=O)C(=O)N3CCCC[C@H]3C(=O)O2)CC[C@H]1O [Example 2, (R)-C16-(1,1-dioxidoisothiazolidin-2-yl)-C32-deoxo-rapamycin] | ~80 | ~40 | failed to inhibit | remained inactivated | significant de-phosphorylation
